“And” between values parts separate entries of the source, which are not always exact repeats. Identical values can stand only once.
Target: T1, E. coli DNA gyrase (Escherichia coli, UniProt P0AES4+P0AES6)
T1 construct: made in house; host or cells: strains overexpressing each subunit individually
Test: In Vitro DNA Gyrase Assay (supercoiling of relaxed pBR322, EtBr-stained agarose gel)
Type: biochemical
Settings: Gyrase IC50 (μM), E. coli DNA gyrase holoenzyme A2B2; substrate relaxed pBR322; relaxed vs. supercoiled DNA on 0.8% agarose gel
From the text: DNA gyrase is a bacterial topoisomerase that introduces negative supercoils into DNA. The DNA gyrase assay measures the degree of enzymatic activity by quantitating relative amounts of relaxed vs. supercoiled DNA on an EtBr-stained 0.8% agarose gel. The substrate is relaxed pBR322. The enzyme is E. coli DNA gyrase which is purified from strains overexpressing each of the subunits individually (there are two: A and B and the holoenzyme consists of the heterodimer A2B2). See for example, Hallett et al. Cloning of the DNA gyrase genes under tac promoter control: overproduction of the gyrase A and B proteins. Gene 93: 139-142 (1990); Simon et al. Biochemical complementation studies in vitro of gyrase subunits from different species. FEBS Lett 373:88-92 (1995); and O'Dea et al. Mutations in the B subunit of Escherichia coli DNA gyrase that affect ATP-dependent reactions. J. Biol Chem 1996 271:9723-9 (1996).
In the below chart, racemic mixtures are denoted with (±)- and enantiomerically enriched samples are denoted by (−)- or (+)-.

T1 sequence (P0AES4 whole entry, one chain of several): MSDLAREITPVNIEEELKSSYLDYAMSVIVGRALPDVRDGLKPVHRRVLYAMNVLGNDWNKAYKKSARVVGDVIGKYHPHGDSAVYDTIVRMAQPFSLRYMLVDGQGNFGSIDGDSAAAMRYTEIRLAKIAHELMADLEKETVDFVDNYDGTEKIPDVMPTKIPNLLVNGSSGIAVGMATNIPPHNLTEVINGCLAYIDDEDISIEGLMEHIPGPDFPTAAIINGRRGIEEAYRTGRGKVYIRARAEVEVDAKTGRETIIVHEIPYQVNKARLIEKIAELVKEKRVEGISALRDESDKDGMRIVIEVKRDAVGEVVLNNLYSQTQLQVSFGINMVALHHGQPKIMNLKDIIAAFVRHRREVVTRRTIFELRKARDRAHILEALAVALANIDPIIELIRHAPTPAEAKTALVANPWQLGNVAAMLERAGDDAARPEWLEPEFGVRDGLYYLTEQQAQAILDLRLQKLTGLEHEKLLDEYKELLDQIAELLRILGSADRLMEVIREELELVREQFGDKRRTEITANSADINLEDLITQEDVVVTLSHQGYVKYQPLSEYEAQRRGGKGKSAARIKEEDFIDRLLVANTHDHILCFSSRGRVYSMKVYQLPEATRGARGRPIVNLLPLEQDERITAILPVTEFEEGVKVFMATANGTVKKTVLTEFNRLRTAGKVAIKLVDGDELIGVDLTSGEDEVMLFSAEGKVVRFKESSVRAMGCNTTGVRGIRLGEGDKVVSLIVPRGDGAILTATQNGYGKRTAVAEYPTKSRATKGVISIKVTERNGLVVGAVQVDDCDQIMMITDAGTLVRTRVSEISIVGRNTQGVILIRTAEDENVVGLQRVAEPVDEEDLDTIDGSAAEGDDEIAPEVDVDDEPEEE

SMILES	IC50
C[C@@H]1CN2c3ccc(C#N)cc3CC3(C(=O)NC(=O)NC3=O)[C@H]2[C@H](C)O1 [Example 6, 1,1′,2,3′4,4′,4a, 6′-Octrahydro-2,4′,6′-trioxospiro[[1,4]oxazino[4,3-a]quinoline-5(6H), 5′(2′H)-pyrimidine]-8-carbonitrile]	13.8 µM
C[C@@H]1CN2c3ccccc3CC3(C(=O)NC(=O)NC3=O)[C@H]2[C@H](C)O1 (racemic) [Example 2, 1,2,4,4a-Tetrahydro-cis-2,4-dimethylspiro[[1,4]oxazino[4,3-a]quinoline-5(6H), 5′(2′H)-pyrimidine]-2′,4′,6′(1′H,3′H)-trione]	45.6 µM
COC(=O)c1ccc2c(c1)CC1(C(=O)NC(=O)NC1=O)[C@H]1[C@H](C)O[C@H](C)CN21 (relative stereo) [Example 43, rel-Methyl (2R,4S,4aS)1,1′-2,3′,4,4a,6′-Octahydro-2,4-dimethyl-2′,4′,6′-trioxospiro[[1,4]oxazino[4,3-a]quinoline-5(6H),5′(2′H)-pyrimidine]-8-carboxylate]	24 µM
C[C@@H]1OCCN2c3ccc([N+](=O)[O-])cc3CC3(C(=O)NC(=O)NC3=O)[C@@H]12 (stereo in doubt) [Example 25]	18.2 µM and 32 µM
C[C@@H]1CN2c3ccc([N+](=O)[O-])cc3CC3(C(=O)NC(=O)NC3=O)[C@H]2[C@H](C)O1 (stereo in doubt) [Example 1]	11.8 µM and 6.1 µM
C[C@@H]1CN2c3ccc(F)cc3CC3(C(=O)NC(=O)NC3=O)[C@H]2[C@H](C)O1 (racemic) [Example 4, 8-Fluoro-1,2,4,4a-tetrahydro-cis-2,4-dimethylspiro[[1,4]oxazino[4,3-a]quinoline-5(6H), 5′(2′H)-pyrimidine]-2′,4′,6′(1′H,3′H)-trione]	70.2 µM
C[C@@H]1CN2c3ccc([N+](=O)[O-])cc3CC3(C(=O)NC(=O)NC3=O)[C@@H]2[C@@H](C)O1 (racemic) [Example 1]	19 µM
CC(=O)c1ccc2c(c1)CC1(C(=O)NC(=O)NC1=O)[C@H]1[C@H](C)O[C@H](C)CN21 (racemic) [Example 18, 8-Acetyl-1,2,4,4a-tetrahydro-2,4-dimethylspiro[[1,4]oxazino[4,3-a]quinoline-5(6H),5′(2H)-pyrimidine)-2′,4′,6′(1′H,3′H)-trione]	8.4 µM

From US8420646B2, “Tricyclic tetrahydroquinoline antibacterial agents” (PAH P&U LLC, priority 2002, dated 2013)
